Laboratory results: US20200071773A1, “TUMOR SIGNATURE FOR METASTASIS, COMPOSITIONS OF MATTER METHODS OF USE THEREOF” (Massachusetts Eye and Ear Infirmary, priority 2017, published 2020)
“Also recorded” adds a separate entry of the source.

B1: TGF4β3: recombinant TGFβ3 (R&D systems), CAF-related ligand (protein, UniProt P10600 301-412, looked up)
Transforming growth factor …: ALDTNYCFRNLEENCCVRPLYIDFRQDLGWKWVHEPKGYYANFCSGPCPYLRSADTTHSTVLGLYNTLNPEASASPCCVPQDLEPLTILYYVGRTPKVEQLSNMVVKSCKCS

Assays:
Assay type in all cases: cell-based, human
SCC9 cells [1] = assay: scRNA-seq p-EMT gene expression score of treated SCC9 cells; conditions: scRNA-seq 4 hours after treatment, relative to vehicle, TGFβ 10 ng/mL, inhibitors: 1 μM A-83-01, or DMH-1, A-83-01, CHIR99021 and Y-27632
Protocol: RNA-seq of Cell Lines. For scRNA-seq, cells were harvested, stained for viability, and sorted into 96-well plates, as described above. cDNA synthesis, library construction, and sequencing were also performed as described. For bulk RNA, RNA was isolated from 1,000 pooled cells using RNEasy Micro Kit (Qiagen).
(§1) TGFβ Treatment and TGFBI Overexpression. For drug treatment experiments, SCC9 cells were grown in vehicle (4 μM HCl with 1 μg/mL BSA), TGFβ, or TGFβ-inhibitor. For TGFβ-treated cells, 10 ng/mL recombinant TGFβ1 (R&D Systems, Minneapolis, Minn.) or TGFβ3 (R&D systems) was applied. Cells in the TGFβ-inhibitor condition were either grown in 3:1 F12:DMEM (ThermoFisher Scientific) with 1 μM A-83-01 (Tocris Bioscience, Bristol, UK) or small airway basal medium (Lonza, Basel, Switzerland) with four inhibitors of the TGFβ pathway: 1 μM DMH-1, 1 μM A-83-01, 1 μM CHIR99021 (Tocris Bioscience), and 10 μM Y-27632 (Selleck Chemicals, Houston, Tex.). For scRNA-seq, cells in each condition were harvested 4 hours after treatment. […]
Defining Cell and Sample Scores. […] However, such initial scores may be confounded by cell complexity, as cells with higher complexity have more genes detected (i.e. less zeros) and consequently would be expected to have higher cell scores for any gene-set. […] First, all analyzed genes are binned into 25 bins of equal size based on their aggregate expression levels (Ea). […]

SCC9 cells [2] = assay: CellTiter-Glo cell proliferation assay; conditions: relative to vehicle
Protocol: as §1
Cell Proliferation Assay. […] Cells were lysed on days 2, 4, and 6 by adding CTG reagent (Promega), and point luminescence was measured via the BioTek Synergy HTX Platereader (BioTek, Winooski, Vt.). […] CTG luminescence values for individual wells were normalized by subtracting background luminescence (mean luminescence values for wells containing PBS, with CTG reagent added), adjusting for 2 μM adenosine triphosphate (ATP) luminescence measured on the same 96-well plate, and normalizing by numbers of plated cells in each condition (as measured by T0 luminescence).
Cell Proliferation Assay. […] Error was calculated as SEM for a representative experiment.

SCC9 cells [3] = assay: Matrigel invasion assay
Protocol: TGFβ Treatment and TGFBI Overexpression. For drug treatment experiments, SCC9 cells were grown in vehicle (4 μM HCl with 1 μg/mL BSA), TGFβ, or TGFβ-inhibitor. For TGFβ-treated cells, 10 ng/mL recombinant TGFβ1 (R&D Systems, Minneapolis, Minn.) or TGFβ3 (R&D systems) was applied. Cells in the TGFβ-inhibitor condition were either grown in 3:1 F12:DMEM (ThermoFisher Scientific) with 1 μM A-83-01 (Tocris Bioscience, Bristol, UK) or small airway basal medium (Lonza, Basel, Switzerland) with four inhibitors of the TGFβ pathway: 1 μM DMH-1, 1 μM A-83-01, 1 μM CHIR99021 (Tocris Bioscience), and 10 μM Y-27632 (Selleck Chemicals, Houston, Tex.). For scRNA-seq, cells in each condition were harvested 4 hours after treatment. For bulk RNA-seq, cells were harvested 2, 4, or 6 days after treatment and titrated for analysis. For matrigel invasion assay and cell proliferation assays, cells were maintained in the given conditions for the duration of the experiment.
Matrigel Invasion Assay. Matrigel invasion assay was performed as previously described (Puram et al., 2012). […] Cells on the lower surface of the membrane were fixed with methanol, stained with crystal violet, and counted in a blinded manner. […]
Matrigel Invasion Assay. […] Invaded cells in each well were counted in a blinded manner across four distinct high powered fields and averaged. Error was calculated as SEM for a representative experiment.

Row | Molecule | p-EMT program / p-EMT gene expression score (SCC9 cells [1]) | relative proliferation (SCC9 cells [2]) | TGFβ response (invasiveness) after genetic inactivation of TGFBI (SCC9 cells [3]; SCC9 TGFBI CRISPR knockout cells versus mock infected) | relative invasiveness (SCC9 cells [3]; SCC9 cells, 24 hours, relative to vehicle)
1 | TGFβ | coherent induction; also recorded: induce a p-EMT-like program | reduced | abrogated | increased
2 | B1 | increased | – | – | –
